# Reference: patent publication US5928931A, “Isolation, purification and cloning of retinol dehydratase” (Cornell Research Foundation, Inc., priority 1997, dated 1999)
# pKd: −log10 of the molar value. “Also recorded” adds a separate entry of the source. Read-outs that look alike come from different tables or passages of the source.
# Columns and labels:
# NIH 3T3 cells = assay: Activation of resting serum-starved NIH 3T3 cells ([3H]thymidine incorporation); assay type: cell-based; conditions: for time from the start of activation to entry of the S phase: 5% fetal calf serum; for activation of growth arrested cells (thymidine incorporation over 24 hours): cells deprived of serum for 3 or 4 days; for concentrations that activate resting 3T3 cells (dose-response): four day serum-starved cells, FIG. 6B; for entry of treated cells into the S phase: data not shown
# Description: FIGS. 6A and 6B show the activation of resting NIH 3T3 cells. In FIG. 6(a), one to four day serum-starved cells activated by serum, retinol, 14-HRR, and the peptide growth factors epidermal growth factor ("EGF") and platelet derived growth factor ("PDGF") are shown. […] NIH 3T3 cells were grown to confluence in Dulbecco's minimal essential medium ("DMEM") containing 10% fetal calf serum in 96-well microliter plates. All media were supplemented with 2 mM glutamine and 100 U/ml of penicillin/streptomycin. Cells were washed once with phosphate-buffered saline solution and incubated for one to four days in 200 μl/well of DMEM media/0.1% fetal calf serum ("starvation media"). On the indicated day, starvation media was replaced with 200 μl/well of insulin, transferrin, linoleic acid, bovine serum albumin ("ITLB") media, with or without fetal calf serum, retinoids, or peptide growth factors at the indicated concentrations. ITLB media is RPMI media (Gibco BRL, Grand Island, N.Y.) containing […] bovine serum albumin (1.2 mg/ml), linoleic acid (10^-6 M), bovine insulin (5 μg/ml), and transferrin (5 μg/ml). [^3 H]thymidine (1.2 μCi per well) was added at the beginning of the experiment, and the thymidine incorporation was determined after 24 h. The data represent the mean of triplicate measurements and standard deviations ("SD") were ≤17%. Recombinant PDGF (B/B) and EGF were purchased from Sigma Chemical Company or Boehringer Mannheim Corporation. Anhydroretinol was synthesized by acid catalyzed dehydration of all-trans-retinol. Embree, J. Biol. Chem. 128:187-98 (1939) and Derguini, et al., Angew. Chem. Int. Ed. Engl. 33:1839-41 (1994), which are hereby incorporated by reference. All-trans-14-hydroxy-4,14-retro-retinol was synthesized as described. Derguini, et al., J. Biochem. 33:623-28 (1994), which is hereby incorporated by reference.
# Cells starved for 4 days in DMEM/0.1% fetal calf serum were activated with 5% fetal calf serum, 2 μM retinol, or 2 μM 14-HRR, and the cumulative thymidine incorporation was determined at the indicated time points. Δcpm corresponds to the increase in [^3 H]thymidine incorporation in the two hour period before the time point shown. This method is described in FIG. 6. The data in FIG. 7 represents the mean of quadruplicate measurements and SDs were ≤15%.
# Cells starved for 4 days in DMEM/0.1% fetal calf serum were activated in 100 μl/well ITLB medium. At the indicated time points, anhydroretinol was added in 100 μl ITLB medium. This method is described in FIG. 6. The data in FIG. 8 represents the mean of quadruplicate measurements and SDs were ≤20%.
# Cells starved for 4 days in DMEM/0.1% fetal calf serum were activated with 5% fetal calf serum, 2 μM retinol, or 2 μM 14-HRR. At the time points, 10^-5 M anhydroretinol was added. The cumulative [^3 H]thymidine incorporation was determined after 24 hours. […] The method is described in FIG. 6. The data in FIG. 9 represents the mean of triplicate measurements and SDs were ≤20%.
# Confluent NIH 3T3 cells were starved for 1 to 4 days in medium containing 0.1% serum. Then, these starved cells were treated with serum, PDGF, EGF, retinol, or 14-HRR. Activation was quantitated by measuring the [^3 H] thymidine incorporated into newly synthesized DNA during the subsequent 24 hours (FIG. 6A). After a single day of serum starvation, the cells were not yet arrested, and the control cells incorporated the same amount of thymidine as the treated cells. After 2 days of serum deprivation, untreated cells incorporated slightly less thymidine, while cells treated with serum, peptide growth factors and retinoids maintained the original level of thymidine incorporation. In contrast, cells deprived of serum for 3 or 4 days were fully growth arrested; untreated cells incorporated little or no thymidine. […] All subsequent activation experiments were conducted using 4 day starved NIH 3T3 cells.
# retinol dehydratase [1] = target: T1, retinol dehydratase (Spodoptera frugiperda, UniProt Q26490); assay: Retinol dehydratase assay ([3H]-retinol to [3H]-AR, HPLC radiomatic detection); kinetic studies; assay type: biochemical
# T1 sequence (Q26490 1-351): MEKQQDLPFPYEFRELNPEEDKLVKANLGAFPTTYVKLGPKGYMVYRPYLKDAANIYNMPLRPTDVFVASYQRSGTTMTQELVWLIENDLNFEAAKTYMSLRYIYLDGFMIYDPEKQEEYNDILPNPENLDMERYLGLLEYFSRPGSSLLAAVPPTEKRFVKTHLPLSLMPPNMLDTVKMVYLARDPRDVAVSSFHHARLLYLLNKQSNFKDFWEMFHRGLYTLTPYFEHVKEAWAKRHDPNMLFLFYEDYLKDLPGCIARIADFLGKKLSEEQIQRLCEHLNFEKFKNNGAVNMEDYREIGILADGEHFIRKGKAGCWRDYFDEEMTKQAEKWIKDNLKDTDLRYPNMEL
# Description: 20-50 μl aliquots of supernatant/column fractions were incubated with 1 μCi of [^3 H]-retinol and 20 μl of high speed supernatant from sonicated Sf-9 cells in 200 μl assay buffer (20 mM Tris.Cl pH 7.5, 150 mM NaCl, I mM MgCI2) for 15-60 minutes at 24° C. […] Samples were delipidated and [^3 H]-AR production quantified by a liquid scintillation radiomatic detector in series with HPLC gradient elution (20 mM Tris pH 7.4/methanol/chloroform) from a C-18 Reverse Phase 201TP54 column (Vydac, Separations Group, Hesperia, Calif.) as described by McClean et al., Clin. Chem., 28:693-96 (1982) and Derguini et al., Angew. Che. Int. Ed. Engl., 33:1839-41 (1994), which are hereby incorporated by reference.
# Kinetic studies were performed with native retinol dehydratase (0.1 μg/assay) and ^3 H-retinol in the presence of constant substrate carrier protein concentrations, either delipidated BSA or recombinant cellular retinol binding protein ("CRBP"). The initial rate of AR synthesis at different substrate concentrations was determined by radiomatic detection of ^3 H-AR after HPLC separation.
# Carrier protein for retinol (delipidated bovine serum albumin or recombinant human CRBP) was added to reduce nonspecific binding and micelle formation.
# B lymphocyte = conditions: Buck et al. 1993; cited from earlier work
# [2] = system: lymphocyte and HL-60 cell; conditions: Eppinger et al. 1993, Buck et al. 1993; cited from earlier work
# resting T lymphocytes = conditions: Buck et al. 1993; cited from earlier work
# Sf-21 cells = assay type: cell-based, Spodoptera frugiperda
# Description: 10^7 Spodoplera frugiperda Sf-21 cells or Sf-9 cells were incubated with 1 μCi^3 H-retinol in Grace's insect cell media for 6 hours. Delipidated and radiolabelled retinoid metabolites were analyzed by radiomatic detection after separation by HPLC.
# Che. Int. Ed. Engl., 33:1839-41 (1994), which is hereby incorporated by reference.
# BSA = BSA (Bos taurus, UniProt P02769); conditions: published value; read-out: BSA Kd for retinol; cited from earlier work
# retinol dehydratase [3] = target: T1, retinol dehydratase; assay: Fluorimetric titration of recombinant retinol dehydratase with retinol (direct binding, no cofactor)
# Description: Binding was monitored by following the fluorescence enhancement of retinol (excitation--330 nm; emission--480 nm, open circles). The fluorescence contribution of free retinol was determined by titration with retinol in the absence of protein (open squares), analyzed by linear regression analysis (dashed line) and subtracted from the titration data to give the corrected titration binding curve (closed circles). The data were fitted (solid line) using an equation derived from simple binding theory.
# Retinol is an efficient fluorophore and its interactions with proteins are often accompanied by a marked increase in its fluorescence. […]
# Recombinant retinol dehydratase (lμM) was titrated with retinol from a concentrated solution in ethanol (final ethanol concentration <2.0%). Binding was monitored by following the fluorescence enhancement of retinol (excitation--330 nm; emission--480 nm, open circles). The fluorescence contribution of free retinol was determined by titration with retinol in the absence of protein (FIG. 5B, open squares), analysed by linear regression analysis (FIG. 5B, dashed line) and subtracted from the titration data to give the corrected titration binding curve (FIG. 5B, closed circles). […]
# CRBP-1 = target: T2, CRBP-1 (Rattus norvegicus, UniProt P02696); conditions: published value; read-out: CRBP Kd for retinol; cited from earlier work
# T2 sequence (P02696 1-135): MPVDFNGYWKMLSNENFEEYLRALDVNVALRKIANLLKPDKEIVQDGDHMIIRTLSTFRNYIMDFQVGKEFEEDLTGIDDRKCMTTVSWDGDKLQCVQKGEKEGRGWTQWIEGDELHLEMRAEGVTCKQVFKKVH
# [4] = 4 day starved cells, 2 μM retinol or 2 μM 14-HRR
# BSA, sequence (P02769 25-607): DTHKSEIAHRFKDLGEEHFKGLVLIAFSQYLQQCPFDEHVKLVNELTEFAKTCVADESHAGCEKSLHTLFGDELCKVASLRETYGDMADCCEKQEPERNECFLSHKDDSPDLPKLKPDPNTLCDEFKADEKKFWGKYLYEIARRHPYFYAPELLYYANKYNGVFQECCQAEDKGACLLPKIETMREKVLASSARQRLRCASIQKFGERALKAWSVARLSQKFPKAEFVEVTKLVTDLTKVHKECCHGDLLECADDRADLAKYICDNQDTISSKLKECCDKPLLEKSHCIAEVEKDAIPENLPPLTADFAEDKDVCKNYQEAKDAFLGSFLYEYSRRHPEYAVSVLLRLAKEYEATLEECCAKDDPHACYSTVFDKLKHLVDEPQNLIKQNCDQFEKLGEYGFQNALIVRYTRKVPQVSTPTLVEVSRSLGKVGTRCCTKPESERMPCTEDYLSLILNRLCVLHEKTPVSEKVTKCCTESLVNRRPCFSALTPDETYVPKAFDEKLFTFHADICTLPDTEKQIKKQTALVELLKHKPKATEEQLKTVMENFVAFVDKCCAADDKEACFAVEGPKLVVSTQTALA
compound,measurement,setting,value
"CC1=CCCC(C)(C)C1=C/C=C(C)/C=C/C=C(\C)C(O)CO (stereo not shown) [14-HRR, 14-hydroxy-4,14-retro-retinol]",time from the start of activation to entry of the S phase,NIH 3T3 cells; [4],16 h
same,activation of growth arrested cells (thymidine incorporation over 24 hours),NIH 3T3 cells,activated the cells at least as well as serum
same,concentrations that activate resting 3T3 cells (dose-response),NIH 3T3 cells,submicromolar
"Nc1ncnc2c1ncn2[C@@H]1O[C@H](COP(=O)(O)OS(=O)(=O)O)[C@@H](OP(=O)(O)O)[C@H]1O [PAPS, 3'-phosphoadenosine 5'-phosphosulfate]",restoration of retinol dehydratase activity (cofactor),"retinol dehydratase [1]; purified recombinant retinol dehydratase, [3H]-retinol assay",necessary and sufficient to restore activity
Nc1ncnc2c1ncn2[C@@H]1O[C@H](COP(=O)(O)OS(=O)(=O)O)[C@@H](O)[C@H]1O [adenosine 5'-phosphosulfate],activity as cofactor in the [3H]-retinol assay,"retinol dehydratase [1]; purified recombinant retinol dehydratase, concentration range tested 1-10 μM",not active
C=C/C(C)=C/C=C/C(C)=C/C=C1/C(C)=CCCC1(C)C [anhydroretinol],effect on B lymphocyte proliferation,B lymphocyte,blocks
same,reaction rate (product inhibition),retinol dehydratase [1]; ratio of 50:1 for anhydroretinol to retinol,halved
same,effect on retinol and 14-HRR supported lymphocyte and HL-60 cell growth,[2],competitively inhibits
same,inhibition of activation by retinol and 14-HRR,NIH 3T3 cells; 3T3 cells,competitively inhibits
same,time after activation within which added anhydroretinol prevents activation,"NIH 3T3 cells; 10^-5 M anhydroretinol, activation by 5% fetal calf serum, 2 μM retinol or 2 μM 14-HRR",≤ 90 min
same,inhibition of activation by serum,"NIH 3T3 cells; 4 day starved cells, FIG. 8",blocks activation by serum in a dose-dependent manner; also recorded: competitively inhibits
same,block of activation when added late,NIH 3T3 cells; anhydroretinol added after 2 hours,unable to block activation
same,effect on activation of resting T lymphocytes,resting T lymphocytes,blocks
O=CCCCC=O [glutaraldehyde],inhibition of cellular production of AR compared to controls,Sf-21 cells; 2% glutaraldehyde fixation,90%
CCCCCCCCCCCCCC(=O)O[C@@H]1[C@@H](C)[C@@]2(O)[C@@H](C=C(CO)C[C@]3(O)C(=O)C(C)=C[C@@H]23)[C@@H]2C(C)(C)[C@]12OC(C)=O [phorbol ester],entry of treated cells into the S phase,NIH 3T3 cells,did not enter the S phase
same,activation of resting cells,NIH 3T3 cells; ≤1 μM,unable to activate
CC1=C(/C=C/C(C)=C/C=C/C(C)=C/C(=O)O)C(C)(C)CCC1 [retinoic acid],activation of resting cells,NIH 3T3 cells; ≤5 μM,unable to activate
CC1=C(/C=C/C(C)=C/C=C/C(C)=C/CO)C(C)(C)CCC1 [retinol],pKd,BSA,6.00
same,Vmax,"retinol dehydratase [1]; all assays, with carrier protein, n=5",490±50 pmoles AR min^-1 enzyme
same,Vmax,"retinol dehydratase [1]; native retinol dehydratase 0.1 μg/assay, 3H-retinol, representative experiment, non-linear regression",530 pmol/mg/min
same,pKd,"retinol dehydratase [3]; n=3, read-out: range of equilibrium dissociation constant (Kd)",7.82 to 8.70
same,pKd,"retinol dehydratase [3]; recombinant enzyme 0.5-1 μM, no cofactor, to be considered an upper limit, read-out: equilibrium dissociation constant (Kd)",8.05
same,pKd,CRBP-1,7.92
same,time from the start of activation to entry of the S phase,NIH 3T3 cells; [4],16 h
same,activation of growth arrested cells (thymidine incorporation over 24 hours),NIH 3T3 cells,activated the cells at least as well as serum
same,concentrations that activate resting 3T3 cells (dose-response),NIH 3T3 cells,submicromolar
[N-]=[N+]=[N-] [sodium azide],inhibition of cellular production of AR compared to controls,Sf-21 cells; 0.1% sodium azide treatment,96%
"Insulin: bovine insulin, 5 μg/ml in ITLB medium",activation of resting 3T3 cells,"NIH 3T3 cells; insulin 5 μg/ml in the defined medium, alone",did not activate
PDGF,activation of growth arrested cells (thymidine incorporation over 24 hours),NIH 3T3 cells,had no effect
same,entry of treated cells into the S phase,NIH 3T3 cells,did not enter the S phase
same,activation of resting cells,NIH 3T3 cells; ≤1000 ng/ml,unable to activate
